Assay results published in ChEMBL document CHEMBL5331073, “Discovery of novel 7,7-dimethyl-6,7-dihydro-5H-pyrrolo[3,4-d]pyrimidines as ATR inhibitors based on structure-based drug design” (Eur J Med Chem, 2023).
Each block holds one molecule with its values, some of them ahead of it.

What was measured:
[1] = molecular target: Serine/threonine-protein kinase ATR (Homo sapiens, UniProt Q13535); assay: Inhibition of ATR (unknown origin) using peptide as substrate preincubated for 10 mins followed by substrate addition by microplate reader analysis
in vitro [2] = settings: rat, liver microsomes
in vitro [3] = settings: human, liver microsomes
in vitro [4] = settings: rat, liver microsomes; remark: listed apart in the source
in vitro [5] = settings: human, liver microsomes; remark: listed apart in the source
in vitro [6] = settings: rat, liver microsomes; remark: listed apart in the source
HT-29 = assay: Antiproliferative activity against ATM-proficient human HT-29 cells assessed as reduction in cell proliferation incubated for 3 days by MTT assay; format: functional, cell-based; settings: HT-29, 72 h
in vitro [7] = settings: human, liver microsomes; remark: listed apart in the source
LoVo [8] = assay: Antiproliferative activity against ATM-deficient human LoVo cells assessed as reduction in cell proliferation incubated for 3 days by MTT assay; format: functional, cell-based; settings: 72 h
LoVo [9] = assay: Antiproliferative activity against ATM-deficient human LoVo cells assessed as reduction in cell proliferation at 0.2 uM incubated for 3 days by MTT assay; format: functional; set-up: scale not given: the % may be the effect or the level left; settings: time 3 day

Chain of Serine/threonine-protein kinase ATR (Q13535 whole entry): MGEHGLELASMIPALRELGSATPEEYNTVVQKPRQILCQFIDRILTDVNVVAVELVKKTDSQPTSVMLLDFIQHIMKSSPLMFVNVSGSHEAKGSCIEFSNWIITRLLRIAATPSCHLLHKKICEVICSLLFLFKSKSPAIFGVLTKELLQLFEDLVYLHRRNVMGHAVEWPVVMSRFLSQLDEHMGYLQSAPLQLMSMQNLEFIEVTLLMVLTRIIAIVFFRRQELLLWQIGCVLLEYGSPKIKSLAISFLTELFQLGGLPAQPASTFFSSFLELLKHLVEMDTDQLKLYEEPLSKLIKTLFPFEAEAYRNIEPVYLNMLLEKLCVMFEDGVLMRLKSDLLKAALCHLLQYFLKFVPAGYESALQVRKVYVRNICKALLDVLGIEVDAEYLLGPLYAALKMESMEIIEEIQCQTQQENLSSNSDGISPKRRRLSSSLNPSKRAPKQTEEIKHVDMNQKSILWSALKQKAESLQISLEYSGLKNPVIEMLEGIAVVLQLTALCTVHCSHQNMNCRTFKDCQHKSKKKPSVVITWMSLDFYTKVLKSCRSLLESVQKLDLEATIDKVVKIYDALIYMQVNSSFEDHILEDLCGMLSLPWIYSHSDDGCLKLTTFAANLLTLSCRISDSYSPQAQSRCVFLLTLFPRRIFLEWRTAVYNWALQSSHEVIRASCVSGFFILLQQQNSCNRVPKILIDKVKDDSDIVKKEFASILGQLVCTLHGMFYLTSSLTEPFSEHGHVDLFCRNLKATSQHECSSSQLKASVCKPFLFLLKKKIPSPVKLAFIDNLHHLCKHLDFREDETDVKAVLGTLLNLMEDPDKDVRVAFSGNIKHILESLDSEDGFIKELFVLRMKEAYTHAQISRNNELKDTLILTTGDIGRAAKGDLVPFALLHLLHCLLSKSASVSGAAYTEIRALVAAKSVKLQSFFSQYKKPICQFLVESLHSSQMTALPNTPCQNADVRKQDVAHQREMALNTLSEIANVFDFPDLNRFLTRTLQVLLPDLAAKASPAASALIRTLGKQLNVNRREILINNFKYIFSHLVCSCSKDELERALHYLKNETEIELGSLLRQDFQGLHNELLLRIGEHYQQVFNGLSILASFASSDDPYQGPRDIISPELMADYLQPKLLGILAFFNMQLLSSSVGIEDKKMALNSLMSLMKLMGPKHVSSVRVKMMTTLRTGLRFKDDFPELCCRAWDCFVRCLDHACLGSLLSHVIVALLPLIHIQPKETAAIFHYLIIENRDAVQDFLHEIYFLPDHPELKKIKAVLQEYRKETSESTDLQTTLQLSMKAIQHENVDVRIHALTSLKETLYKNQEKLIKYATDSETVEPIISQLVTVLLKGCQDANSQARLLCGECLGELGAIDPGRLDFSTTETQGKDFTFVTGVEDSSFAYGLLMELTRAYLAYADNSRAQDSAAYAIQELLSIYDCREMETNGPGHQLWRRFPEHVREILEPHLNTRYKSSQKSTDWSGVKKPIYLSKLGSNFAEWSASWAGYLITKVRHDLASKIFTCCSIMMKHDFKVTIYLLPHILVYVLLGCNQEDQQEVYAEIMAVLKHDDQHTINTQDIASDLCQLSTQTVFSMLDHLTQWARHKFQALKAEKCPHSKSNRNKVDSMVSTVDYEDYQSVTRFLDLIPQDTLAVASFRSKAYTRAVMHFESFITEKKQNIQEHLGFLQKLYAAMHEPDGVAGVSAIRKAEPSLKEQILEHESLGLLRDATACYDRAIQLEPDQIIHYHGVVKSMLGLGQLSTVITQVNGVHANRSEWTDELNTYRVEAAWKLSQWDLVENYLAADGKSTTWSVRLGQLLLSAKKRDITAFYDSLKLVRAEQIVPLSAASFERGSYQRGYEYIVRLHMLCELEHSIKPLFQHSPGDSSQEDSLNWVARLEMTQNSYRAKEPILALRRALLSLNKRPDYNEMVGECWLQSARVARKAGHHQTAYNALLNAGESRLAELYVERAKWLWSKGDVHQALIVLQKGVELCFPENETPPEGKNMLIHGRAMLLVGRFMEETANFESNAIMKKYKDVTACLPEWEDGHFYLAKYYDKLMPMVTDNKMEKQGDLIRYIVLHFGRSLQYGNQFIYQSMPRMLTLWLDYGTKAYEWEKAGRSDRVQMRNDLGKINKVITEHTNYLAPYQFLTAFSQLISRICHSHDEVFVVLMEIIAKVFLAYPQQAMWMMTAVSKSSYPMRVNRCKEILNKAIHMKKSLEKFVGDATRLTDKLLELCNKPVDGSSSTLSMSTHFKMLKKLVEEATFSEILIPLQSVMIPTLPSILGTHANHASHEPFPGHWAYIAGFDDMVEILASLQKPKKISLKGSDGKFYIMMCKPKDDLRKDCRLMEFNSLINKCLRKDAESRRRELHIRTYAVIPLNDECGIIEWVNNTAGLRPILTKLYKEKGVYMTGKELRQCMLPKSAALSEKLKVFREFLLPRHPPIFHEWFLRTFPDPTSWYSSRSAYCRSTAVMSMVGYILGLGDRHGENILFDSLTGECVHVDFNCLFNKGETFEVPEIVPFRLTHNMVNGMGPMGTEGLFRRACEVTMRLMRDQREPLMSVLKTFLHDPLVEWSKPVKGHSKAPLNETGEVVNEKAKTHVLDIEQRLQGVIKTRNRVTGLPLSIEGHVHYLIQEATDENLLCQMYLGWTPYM

SMILES: C[C@@H]1COCCN1c1nc(-c2cccc3[nH]ccc23)nc2c1CN(C(=O)c1ccc(OC(F)(F)F)cc1)C2(C)C
- IC50 [1]: 42 nM

SMILES: C[C@@H]1COCCN1c1nc(-c2cccc3[nH]ccc23)nc2c1CCN(C(=O)c1ccccc1)C2(C)C
- half-life at 1 h, 1 µM (in vitro [2]): 38.2 min
- IC50 [1]: 9 nM
- CLint scaled at 1 h, 1 µM (in vitro [3]): 53.7 mL/min/kg
- CLint scaled at 1 h, 1 µM (in vitro [4]): 65.5 mL/min/kg
- microsomal CLint at 1 h, 1 µM (in vitro [5]): 56.8 µL/min/mg
- microsomal CLint at 1 h, 1 µM (in vitro [6]): 36.4 µL/min/mg
- IC50 (HT-29): 1640 nM
- half-life at 1 h, 1 µM (in vitro [7]): 24.5 min
- IC50 (LoVo [8]): 574 nM

SMILES: C[C@@H]1COCCN1c1nc(-c2cccc3[nH]ccc23)nc2c1CN(C(=O)C(C)(C)C)C2(C)C
- IC50 [1]: 12 nM
- Activity (LoVo [9]): <45%

SMILES: C[C@@H]1COCCN1c1nc(-c2cccc3[nH]ccc23)nc2c1CCN(C(=O)Cc1ccccc1)C2(C)C
- IC50 [1]: 22 nM

SMILES: C[C@@H]1COCCN1c1nc(-c2cccc3[nH]ccc23)nc2c1CCN(C(=O)C1CCC1)C2(C)C
- IC50 [1]: 17 nM

SMILES: CC(C)C(=O)N1CCc2nc(-c3cccc4[nH]ccc34)nc(N3CCOC[C@H]3C)c2C1
- IC50 [1]: > 100 nM

SMILES: C[C@@H]1COCCN1c1nc(-c2cccc3[nH]ccc23)nc2c1CCN(C(=O)c1cccc(C(F)(F)F)c1)C2(C)C
- IC50 [1]: 72 nM

SMILES: COc1cccc(C(=O)N2CCc3c(N4CCOC[C@H]4C)nc(-c4cccc5[nH]ccc45)nc3C2(C)C)c1
- IC50 [1]: 5 nM

SMILES: CC(C)C(=O)N1Cc2c(N3CCOC[C@H]3C)nc(-c3cccc4[nH]ccc34)nc2C1(C)C
- IC50 [1]: 8 nM
- Activity (LoVo [9]): <45%

SMILES: CC(C)C(=O)N1CCc2c(N3CCOC[C@H]3C)nc(-c3cccc4[nH]ccc34)nc2C1(C)C
- half-life at 1 h, 1 µM (in vitro [2]): 10.9 min
- IC50 [1]: 10 nM
- CLint scaled at 1 h, 1 µM (in vitro [3]): 466 mL/min/kg
- CLint scaled at 1 h, 1 µM (in vitro [4]): 232 mL/min/kg
- microsomal CLint at 1 h, 1 µM (in vitro [5]): 493 µL/min/mg
- microsomal CLint at 1 h, 1 µM (in vitro [6]): 129 µL/min/mg
- IC50 (HT-29): 4310 nM
- half-life at 1 h, 1 µM (in vitro [7]): 2.82 min
- IC50 (LoVo [8]): 1120 nM

SMILES: CCC(=O)N1Cc2c(N3CCOC[C@H]3C)nc(-c3cccc4[nH]ccc34)nc2C1(C)C
- IC50 [1]: 2 nM
- Activity (LoVo [9]): <45%

SMILES: C[C@@H]1COCCN1c1nc(-c2cccc3[nH]ccc23)nc2c1CN(C(=O)C1CCC1)C2(C)C
- IC50 [1]: 7 nM
- Activity (LoVo [9]): <45%

SMILES: CCOC(=O)N1CCc2c(N3CCOC[C@H]3C)nc(-c3cccc4[nH]ccc34)nc2C1(C)C
- IC50 [1]: 18 nM

Results, then the molecule that gave them:

- IC50 [1]: > 1100 nM
SMILES: CCC(=O)N1CCc2nc(-c3cccc4[nH]ccc34)nc(N3CCOC[C@H]3C)c2C1

- IC50 [1]: 29 nM
SMILES: CC(=O)N1CCc2c(nc(-c3cccc4[nH]ccc34)nc2N2CCOC[C@H]2C)C1

- IC50 [1]: > 100 nM
SMILES: COc1ccc(C(=O)N2CCc3c(N4CCOC[C@H]4C)nc(-c4cccc5[nH]ccc45)nc3C23CCC3)cc1

- IC50 [1]: 76 nM
SMILES: COc1cccc(C(=O)N2CCc3c(nc(-c4cccc5[nH]ccc45)nc3N3CCOC[C@H]3C)C2)c1

- IC50 [1]: 6 nM
SMILES: C=CC(=O)N1CCc2c(N3CCOC[C@H]3C)nc(-c3cccc4[nH]ccc34)nc2C1(C)C

- IC50 [1]: 52 nM
SMILES: C[C@@H]1COCCN1c1nc(-c2cccc3[nH]ccc23)nc2c1CCN(C(=O)CN1CCN(C)CC1)C2(C)C

- IC50 [1]: 51 nM
SMILES: COc1ccc(C(=O)N2CCc3c(nc(-c4cccc5[nH]ccc45)nc3N3CCOC[C@H]3C)C2)cc1

- IC50 [1]: > 100 nM
SMILES: CC(=O)N1CCc2nc(-c3cccc4[nH]ccc34)nc(N3CCOC[C@H]3C)c2C1

- IC50 [1]: 17 nM
SMILES: C[C@@H]1COCCN1c1nc(-c2cccc3[nH]ccc23)nc2c1CCN(C(=O)C(C)(C)C)C2(C)C

- half-life at 1 h, 1 µM (in vitro [2]): 14 min
- IC50 [1]: 9 nM
- CLint scaled at 1 h, 1 µM (in vitro [3]): 195 mL/min/kg
- CLint scaled at 1 h, 1 µM (in vitro [4]): 178 mL/min/kg
- microsomal CLint at 1 h, 1 µM (in vitro [5]): 207 µL/min/mg
- microsomal CLint at 1 h, 1 µM (in vitro [6]): 98.8 µL/min/mg
- IC50 (HT-29): 2470 nM
- half-life at 1 h, 1 µM (in vitro [7]): 6.7 min
- IC50 (LoVo [8]): 779 nM
SMILES: CCC(=O)N1CCc2c(N3CCOC[C@H]3C)nc(-c3cccc4[nH]ccc34)nc2C1(C)C

- IC50 [1]: 28 nM
SMILES: C[C@@H]1COCCN1c1nc(-c2cccc3[nH]ccc23)nc2c1CCN(C(=O)C1CC1)C21CCC1

- IC50 [1]: > 100 nM
SMILES: COc1cccc(C(=O)N2CCc3c(N4CCOC[C@H]4C)nc(-c4cccc5[nH]ccc45)nc3C23CCC3)c1

- IC50 [1]: > 100 nM
SMILES: COc1cccc(C(=O)N2CCc3nc(-c4cccc5[nH]ccc45)nc(N4CCOC[C@H]4C)c3C2)c1
